These results are taken from patent publication US10010529B2, “Extended release pharmaceutical formulations with controlled impurity levels” (Ezra Pharma LLC, priority 2016, dated 2018).

Series [1] in a line: Compatibility study for valsartan related compound A (Impurity A), 2 weeks 60° C. closed glass vial. Type of series: physicochemical. How it is done:
Valsartan and valsartan solubilized in molten solubilizers as depicted in tables I and II respectively were subjected to compatibility studies at the following condition: • 2 weeks 60° C. closed glass vial Solubilized valsartan used for the study was prepared by melting the solubiliser/s (Kolliphor P 407, Kolliphor TPGS and combination thereof) in a beaker at water bath temperature 65° C. The drug was mixed with the molten solubiliser/s uniformly at water bath temperature 65° C. and the cooled mass was used in the studies. Levels of Impurity A were evaluated at the tabulated conditions as mentioned in Table III.

For series [2] the following is noted: in vivo; cited from earlier work.

On to `CCCCC(=O)N(Cc1ccc(-c2ccccc2-c2nnn[nH]2)cc1)[C@H](C(=O)O)C(C)C` [Valsartan API, (S)—N-(1-oxopentyl)-N-[[2′-(1H-tetrazol-5-yl) [1,1′-biphenyl]-4-yl]methyl]-L-valine], for which, in series [1] (2 weeks 60° C., closed glass vial), the “Impurity A level, 2 Weeks 60° C. Closed glass Vial” value was determined as 0.05. The “generation of Valsartan R-isomer impurity (Impurity A), in words” value in series [1] (conditions of the compatibility study) is reported as “not generated”. Further, in series [1] (initial), the “Impurity A level, Initial” value is given as 0.03. Moreover, the absolute bioavailability entry in series [2] is listed as “about 25%”.
